In assay [1] the test system is HCT-116 cells. Nature of the assay: Inhibition of sphere-forming ability of cancer cells (Test Example 1). It counts as cell-based. The settings on record: Homo sapiens, 96 h; HCT-116 spheres, non-adherent, serum-free, 4 days, CellTiter-Glo; read-out: Sphere IC50 value (concentration for 50% inhibition of cell proliferation). The protocol: (§1) HCT-116 cells were available from the American Type Culture Collection (ATCC). HCT-116 cells were cultured at 37° C. and 5% CO2 using the McCoy's 5a medium containing 10% fetal bovine serum (FBS) and 1% penicillin/streptomycin. […] The test compounds were added into each well to adjust the final concentration of DMSO to 0.1%, and the cells were cultured for 4 days.
A general note: Cellular ATP, detected with luciferase, serves as a proxy for viable cell number.

The subject of assay [2] is HCT-116 cells. Briefly: Test for inhibiting sphere-forming ability of cancer cells in the presence of BSA (Test Example 2). It counts as cell-based. The settings on record: Homo sapiens, 96 h; HCT-116 spheres, 5% bovine serum albumin (BSA), 4 days, CellTiter-Glo; read-out: Sphere IC50 value (concentration for 50% inhibition of cell proliferation). On the procedure:
as §1

In assay [3] the test system is HCT-116 tumor-bearing mouse. Nature of the assay: Anti-tumor effect to HCT-116 tumor-bearing mouse (Test Example 4). It counts as in vivo. The settings on record: nude mouse, oral. An excerpt: The present compound can be used to evaluate the anti-tumor effect thereof. A 4 to 7-week-old nude mouse (BALB/cAnNCrj-nu/nu, female, CHARLES RIVER LABORATORIES JAPAN, INC.) received intradermal transplantation of HCT-116 cells (ATCC) in an amount of 3×10^6 cells/mouse around the ventral portion. The engraftment of HCT-116 cells was observed 5 to 14 days after the transplantation, and then each compound suspended in a solvent such as 0.5% methylcellulose solution was orally administrated to the mouse in a dose of 1 to 100 mg/kg one to twice daily. The tumor volume was measured over time after the administration to evaluate the effect for reducing the tumor volume by the administration of each compound. The tumor volume can be calculated from the minor axis and the major axis of the tumor measured with a digital caliper (Mitutoyo) according to the following formula: Tumor volume [mm^3]=0.5×minor axis [mm]×(major axis [mm])^2
The tumor volume in control administration group treated with only a solvent such as 0.5% methylcellulose solution was compared with that of the present compound administration group, and T/C value was calculated according the following formula to evaluate the anti-tumor effect of the present compound. T/C (%)=(the tumor volume at the end of administration in the present compound administration group−the tumor volume at the start of administration in the present compound administration group)/(the tumor volume at the end of administration in the control administration group−the tumor volume at the start of administration in the […] administration group)×100
The T/C values (%) of the present compound on each dosage and administration period in the HCT-116 tumor-bearing mouse are shown below.

Where [4] appears, read: dosage 30 mg/kg, administration period 17 days.
The mark [5] stands for this setting: dosage 100 mg/kg, administration period 17 days.

pIC50: −log10 of the molar value. “And” between values parts separate entries of the source, which are not always exact repeats. Equal values may be shown once. Some results are limits rather than exact numbers.

For `O=C(Nc1cn(Cc2cccc(C(F)(F)F)c2)cn1)c1ccc(CO)nc1` [Example 12, 6-(hydroxymethyl)-N-{1-[3-(trifluoromethyl)benzyl]-1H-imidazol-4-yl}nicotinamide], the pIC50 in assay [1] was more than 8.00; in assay [2], 7.22. For the same compound, the “T/C (%)” value in assay [3] (dosage 100 mg/kg, administration period 16 days) is on record as 49%.
Consider `O=C(Nc1cn(Cc2cccc(C(F)(F)F)c2)cn1)c1cnc(CO)c(C(F)F)c1` [Example 17, 5-(difluoromethyl)-6-(hydroxymethyl)-N-{1-[3-(trifluoromethyl)benzyl]-1H-imidazol-4-yl}nicotinamide], for which the values for the pIC50 in assay [1] and in assay [2] were more than 8.00 and 7.24, respectively. Further, the “T/C (%)” value was found to be 74% in assay [3] (setting [4]) and 75% in assay [3] (setting [5]).
As to `O=C(Nc1cn(Cc2cc(F)c(F)c(F)c2)cn1)c1cnc(CO)c(C(F)F)c1` [Example 18, 5-(difluoromethyl)-6-(hydroxymethyl)-N-[1-(3,4,5-trifluorobenzyl)-1H-imidazol-4-yl]nicotinamide], the pIC50 in assay [1] was more than 8.00; in assay [2] it was 7.28. Further, the “T/C (%)” value was found to be 63% in assay [3] (setting [4]) and 54% in assay [3] (setting [5]).
The like results for `Cc1cc(C(=O)Nc2cn(Cc3cc(F)c(F)c(F)c3)cn2)cnc1CO` [Example 39, 6-(hydroxymethyl)-5-methyl-N-[1-(3,4,5-trifluorobenzyl)-1H-imidazol-4-yl]nicotinamide] were, in that order, more than 8.00, more than 8.00, 79% and 65%.
Turning to `Nc1cc(C(=O)Nc2cn(Cc3cccc(C(F)(F)F)c3)cn2)cnc1CO` [Example 45, 5-Amino-6-(hydroxymethyl)-N-{1-[3-(trifluoromethyl)benzyl]-1H-imidazol-4-yl}nicotinamide], the pIC50 in assay [1] was 7.54; in assay [2], 7.23. Also, the “T/C (%)” value in assay [3] (setting [4]) was 90% and 91%; in assay [3] (setting [5]), 81%.
Turning to `Nc1cc(C(=O)Nc2cn(Cc3cc(F)c(F)c(F)c3)cn2)cnc1CO` [Example 46, 5-Amino-6-(hydroxymethyl)-N-[1-(3,4,5-trifluorobenzyl)-1H-imidazol-4-yl]nicotinamide], the pIC50 in assay [1] is 8.00; in assay [2] it was 7.24. The “T/C (%)” value in assay [3] (setting [5]) is 91%.

The values above are taken from patent US11661397B2, “1,4-disubstituted imidazole derivative” (Sumitomo Pharma Co., Ltd., priority 2015, dated 2023).
